According to US11634425B2, “Pharmaceutical compounds” (priority 2019, dated 2023):
Converted amounts (≈) assume the structure as drawn. Like-named read-outs stand apart in the source and are kept apart here.

Experiments:
in vitro [1] = format: in vitro ADME; settings: hepatocytes, 3 μM compound, read-out: Liver Hepatocyte Stability t1/2
Protocol: Compounds were subjected to the following assays to investigate liver microsomal stability and hepatocyte stability.
Hepatocyte Incubation: Experimental Procedure
Cryopreserved pooled hepatocytes were purchased from a reputable commercial supplier and stored in liquid nitrogen prior to use. Williams E media supplemented with 2 mM L-glutamine and 25 mM HEPES and test compound (final substrate concentration 3 μM; final DMSO concentration 0.25%) are pre-incubated at 37° C. prior to the addition of a suspension of cryopreserved hepatocytes (final cell density 0.5×10^6 viable cells/mL in Williams E media supplemented with 2 mM L-glutamine and 25 mM HEPES) to initiate the reaction. The final incubation volume is 500 μL. Two control compounds were included with each species, alongside appropriate vehicle control. The reactions are stopped by transferring 50 μL of incubate to 100 μL acetonitrile containing internal standard at the appropriate time points. Samples were removed at 6 time points (0, 5, 15, 30, 45 and 60 min) over the course of a 60 min experiment. The termination plates are centrifuged at 2500 rpm at 4° C. for 30 min to precipitate the protein. Following protein precipitation, the sample supernatants were combined in cassettes of up to 4 compounds and analysed using generic LC-MS/MS conditions. From a plot of ln peak area ratio (compound peak area/internal standard peak area) against time, the gradient of the line is determined. Subsequently, half-life (t1/2) and intrinsic clearance (CLint) were calculated.

Cell cytotoxicity (CC50) = format: cell-based; settings: human; mean of at least two experiments
Method in brief: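 Values are means of ≥2 independent runs, rounded to whole units, from 4-parameter variable-slope curve fits. Toxicity measured in Hep-G2 cells run alongside RSV plaque-reduction assays.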

in vitro [2] = format: in vitro ADME; settings: microsomes, pH 7.4, 1 μM compound, 0.5 mg/mL protein, read-out: Liver Microsomal Stability t1/2
Method in brief: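 Pooled liver microsomes (0.5 mg/mL protein) in 0.1 M phosphate pH 7.4 with 1 μM compound and 1 mM NADPH at 37° C., sampled at 0–45 min; minus-NADPH control at 45 min. Acetonitrile quench, LC-MS/MS; t1/2 and CLint from ln peak-area ratio vs time slope.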

Thermodynamic solubility = format: physicochemical; settings: aqueous buffer, thermodynamic from solid; typically phosphate buffered saline pH 7.4, ambient temperature overnight
Protocol: Test compound (2.5 mg of solid; n=1) was weighed in an amber glass vial and buffer (0.5 mL) was added (typically phosphate buffered saline pH 7.4). The solution was agitated at ambient temperature overnight using a vial roller system. The solution was then filtered (0.45 μm pore size; without pre-saturation). Duplicate aliquots (50 μL) are sampled from the filtrate and diluted with one volume of Milli-Q water and methanol (1:1 v/v) before analysis by HPLC-UV. A standard was prepared in DMSO at 10 mg/mL (n=1) which was then diluted 10-fold in Milli-Q water and methanol (1:1 v/v) to give a 1 mg/mL solution. The concentration of test compound in the filtrate was quantified relative to the concentration standard. Analysis was performed using a gradient HPLC-MS system.

RSV A2 = test: RSV plaque reduction assay; format: cell-based, respiratory syncytial virus (RSV); settings: human respiratory syncytial virus, HepG2, Hep-G2 cells, mean of at least two experiments
Method in brief: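 EC50 is the 50% reduction in immunostained plaque count versus virus-control wells, interpolated from variable-slope 4-parameter fits and averaged over at least two runs. Hep-G2 cells were infected with 100 PFU/well RSV A2 premixed with compound, with the inoculum removed after 2 h. Incubation continued at 37 °C for 2 days under a CMC overlay with compound.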

in vivo = format: in vivo; settings: male Beagle dog
Protocol: The pharmacokinetics of compounds were studied in vivo in dogs at doses of 0.5 mg/kg (IV) and 4 mg/kg (PO).
Male Beagle dogs were treated with experimental compounds via intravenous administration (n=2; 0.5 mg/kg) or oral administration (n=2; 3 or 4 mg/kg). Compounds were formulated as a solution in 20% dimethylacetamide/80% (2-hydroxypropyl)-β-cyclodextrin (20% w/v) (IV administration) or a solution in 10% dimethylacetamide/90% (2-hydroxypropyl)-β-cyclodextrin (20% w/v) (PO administration). […] Serial blood samples were collected from the jugular vein at 0.03, 0.08, 0.25, 0.5, 1, 2, 4, 6, 8 and 24 h post IV dosing of compound, and at 0.08, 0.25, 0.5, 1, 2, 4, 6, 8 and 24 h post oral dosing of compound, and plasma was prepared by centrifugation and stored immediately at −80° C. Samples were subsequently thawed, prepared for analysis by protein precipitation with acetonitrile, and analysed by tandem LCMS using electrospray ionisation using a matrix-matched calibration curve. PK parameters were calculated from the resulting data.

RSV = settings: Antimicrobial Agents and Chemotherapy, September 2007, 3346-3353; cited from earlier work

Row | Compound | half-life at 3 μM (in vitro [1]; dog) | half-life at 3 μM (in vitro [1]; human) | half-life at 3 μM (in vitro [1]; rat) | CC50 (Cell cytotoxicity (CC50)) | half-life at 1 μM (in vitro [2]; dog) | half-life at 1 μM (in vitro [2]; human) | half-life at 1 μM (in vitro [2]; rat) | solubility thermodynamic (Thermodynamic solubility) | EC50 (RSV A2) | Vd (in vivo; in vivo, IV 0.5 mg/kg) | clearance (in vivo; in vivo, IV 0.5 mg/kg) | Cmax (in vivo; in vivo, IV 0.5 mg/kg / PO 3 or 4 mg/kg study) | half-life (in vivo; in vivo, IV 0.5 mg/kg, read-out: IV t1/2 (converted)) | AUC(0-t) (in vivo; in vivo, PO 3 or 4 mg/kg, read-out: PO AUClast) | half-life (in vivo; in vivo, PO 3 or 4 mg/kg, read-out: PO t1/2 (converted)) | C 8 h (in vivo; 8 h, IV 0.5 mg/kg / PO 3 or 4 mg/kg study) | F (in vivo; IV 0.5 mg/kg, PO 3 or 4 mg/kg) | anti-RSV activity (RSV)
1 | Cc1nc2ccc(Cl)nn2c1C(=O)N[C@H]1N=C(c2ccccc2)c2cccc(F)c2NC1=O [Example 20, 6-Chloro-N-[(3S)-9-fluoro-2-oxo-5-phenyl-1,3-dihydro-1,4-benzodiazepin-3-yl]-2-methylimidazo[1,2-b]pyridazine-3-carboxamide] | 132 min | 131 min | 175 min | > 25 µM | > 140 min | > 140 min | 101 min | 3.84 µM (≈ 1.78 µg/mL) | 114 nM | 1.2 L/kg | 1.6 mL/min/kg | 3850 ng/mL | 618 min | 43700 ng·h/mL | 1150 min | 1581 ng/mL | 118% | –
2 | O=C(Nc1ccccc1F)N[C@H]1N=C(c2ccccc2)c2ccccc2NC1=O [RSV604] | – | – | – | – | – | – | – | – | – | – | – | – | – | – | – | – | – | sub-micromolar
